# Data: ChEMBL document CHEMBL1147856, “Synthesis, determination of the absolute configuration of tonkinelin, and inhibitory action with bovine heart mitochondrial complex I” (Bioorg Med Chem, 2007)
# Experiment: Inhibition of NADH-ubiquinone oxidoreductase activity in bovine heart submitochondrial particles
# Parameters: species or system Bos taurus
row,SMILES,IC50 [nM]
1,CCCCCCCCCCCCCCCC[C@H](O)[C@@H](O)CCCCCCCCCCCCCCC1=C[C@H](C)OC1=O,580
2,CCCCCCCCCC[C@@H](O)[C@@H]1CC[C@@H]([C@@H]2CC[C@@H]([C@H](O)CCCCCCCCCC(O)CC3=CC(C)OC3=O)O2)O1 (stereo not given in full) [BULLATACIN],0.83
3,CCCCCCCCCCCC[C@H](O)[C@@H]1CC[C@H]([C@H](O)CCCCCCCCCCCCC2=C[C@H](C)OC2=O)O1 [CIS-SOLAMIN],2.6
4,CCCCCCCCCCCC[C@H](O)[C@@H](O)CC[C@@H](O)[C@H](O)CCCCCCCCCCCCC1=C[C@H](C)OC1=O [DIHYDROXY-COHIBIN A],20
5,CCCCCCCCCCCCCCCC[C@@H](O)[C@H](O)CCCCCCCCCCCCCCC1=C[C@H](C)OC1=O [TONKINELIN],690
